Data from patent US7642221B2, “Substituted thien-3-yl-sulphonylamino(thio)carbonyl-triazoline(ethi)ones” (Bayer Aktiengesellschaft, priority 1999, dated 2010).

Tests used:
[1] = test system: Bromus; assay: Pre-emergence test/greenhouse; format: in vivo; conditions: greenhouse, 60 g of ai/ha, rated after three weeks
Experimental: (§1) • Solvent: 5 parts by weight of acetone • Emulsifier: 1 part by weight of alkylaryl polyglycol ether
(§2) To produce a suitable preparation of active compound, 1 part by weight of active compound is mixed with the stated amount of solvent, the stated amount of emulsifier is added and the concentrate is diluted with water to the desired concentration.
(§3) Seeds of the test plants are sown in normal soil. After about 24 hours, the soil is sprayed with the preparation of active compound such that the particular amount of active compound desired is applied per unit area. The concentration of the spray liquor is chosen so that the particular amount of active compound desired is applied in 1000 liters of water per hectare.
(§4) After three weeks, the degree of damage to the plants is rated in % damage in comparison to the development of the untreated control.
(§5) The figure denote: • 0%=no effect (like untreated control) • 100%=total destruction

[2] = test system: Setaria; assay: Pre-emergence test/greenhouse; format: in vivo; conditions: greenhouse, rated after three weeks
Experimental: as §1, §2, §3, §4, §5

[3] = test system: Veronica; assay: Pre-emergence test/greenhouse; format: in vivo; conditions: greenhouse, 60 g of ai/ha, rated after three weeks
Experimental: as §1, §2, §3, §4, §5

[4] = test system: Chenopodium; assay: Pre-emergence test/greenhouse; format: in vivo; conditions: greenhouse, 60 g of ai/ha, rated after three weeks
Experimental: as §1, §2, §3, §4, §5

[5] = test system: Stellaria; assay: Pre-emergence test/greenhouse; format: in vivo; conditions: greenhouse, 60 g of ai/ha, rated after three weeks
Experimental: as §1, §2, §3, §4, §5

[6] = test system: Matricaria; assay: Pre-emergence test/greenhouse; format: in vivo; conditions: greenhouse, 60 g of ai/ha, rated after three weeks
Experimental: as §1, §2, §3, §4, §5

[7] = test system: Alopecurus; assay: Pre-emergence test/greenhouse; format: in vivo; conditions: greenhouse, rated after three weeks
Experimental: as §1, §2, §3, §4, §5

[8] = test system: Viola; assay: Pre-emergence test/greenhouse; format: in vivo; conditions: greenhouse, 60 g of ai/ha, rated after three weeks
Experimental: as §1, §2, §3, §4, §5

[9] = test system: weeds; assay: Post-emergence test, activity against weeds; format: in vivo
Experimental: as §1
(§6) To produce a suitable preparation of active compound, one part by weight of active compound is mixed with the stated amount of solvent, the stated amount of emulsifier is added and the concentrate is diluted with water to the desired concentration.
(§7) Test plants which have a height of 5-15 cm are sprayed with the preparation of active compound such that the particular amounts of active compound desired are applied per unit area. The concentration of the spray liquor is chosen so that the particular amounts of active compound desired are applied in 1000 l of water/ha.
as §4
(§8) The figures denote: • 0%=no effect (like untreated control) • 100%=total destruction

[10] = test system: weeds; assay: Pre-emergence test, activity against weeds; format: in vivo
Experimental: as §1, §2, §3, §4, §5

[11] = test system: Abutilon; assay: Post-emergence test/greenhouse; format: in vivo; conditions: greenhouse, rated after three weeks
Experimental: as §1, §6, §7, §4, §8

[12] = test system: Setaria; assay: Post-emergence test/greenhouse; format: in vivo; conditions: greenhouse, rated after three weeks
Experimental: as §1, §6, §7, §4, §8

[13] = test system: Xanthium; assay: Post-emergence test/greenhouse; format: in vivo; conditions: greenhouse, rated after three weeks
Experimental: as §1, §6, §7, §4, §8

[14] = test system: Sinapis; assay: Post-emergence test/greenhouse; format: in vivo; conditions: greenhouse, rated after three weeks
Experimental: as §1, §6, §7, §4, §8

[15] = test system: Avenafatua; assay: Post-emergence test/greenhouse; format: in vivo; conditions: greenhouse, rated after three weeks
Experimental: as §1, §6, §7, §4, §8

[16] = test system: Amaranthus; assay: Post-emergence test/greenhouse; format: in vivo; conditions: greenhouse, rated after three weeks
Experimental: as §1, §6, §7, §4, §8

[17] = test system: Alopecurus; assay: Post-emergence test/greenhouse; format: in vivo; conditions: greenhouse, rated after three weeks
Experimental: as §1, §6, §7, §4, §8

[18] = test system: Abutilon; assay: Pre-emergence test/greenhouse; format: in vivo; conditions: greenhouse, rated after three weeks
Experimental: as §1, §2, §3, §4, §5

[19] = test system: Xanthium; assay: Pre-emergence test/greenhouse; format: in vivo; conditions: greenhouse, rated after three weeks
Experimental: as §1, §2, §3, §4, §5

[20] = test system: Sinapis; assay: Pre-emergence test/greenhouse; format: in vivo; conditions: greenhouse, rated after three weeks
Experimental: as §1, §2, §3, §4, §5

[21] = test system: Amaranthus; assay: Pre-emergence test/greenhouse; format: in vivo; conditions: greenhouse, rated after three weeks
Experimental: as §1, §2, §3, §4, §5

[22] = test system: Cyperus; assay: Pre-emergence test/greenhouse; format: in vivo; conditions: greenhouse, rated after three weeks
Experimental: as §1, §2, §3, §4, §5

[23] = test system: Solanum; assay: Pre-emergence test/greenhouse; format: in vivo; conditions: greenhouse, 60 g of ai/ha, rated after three weeks
Experimental: as §1, §2, §3, §4, §5

[24] = test system: Barley; assay: Pre-emergence test/greenhouse; format: in vivo; conditions: greenhouse, 60 g of ai/ha, rated after three weeks
Experimental: as §1, §2, §3, §4, §5

[25] = test system: Wheat; assay: Pre-emergence test/greenhouse; format: in vivo; conditions: greenhouse, 60 g of ai/ha, rated after three weeks
Experimental: as §1, §2, §3, §4, §5

[26] = test system: Solanum; assay: Post-emergence test/greenhouse; format: in vivo; conditions: greenhouse, 15 g of ai/ha, rated after three weeks
Experimental: as §1, §6, §7, §4, §8

[27] = test system: Stellaria; assay: Post-emergence test/greenhouse; format: in vivo; conditions: greenhouse, 15 g of ai/ha, rated after three weeks
Experimental: as §1, §6, §7, §4, §8

[28] = test system: Matricaria; assay: Post-emergence test/greenhouse; format: in vivo; conditions: greenhouse, 15 g of ai/ha, rated after three weeks
Experimental: as §1, §6, §7, §4, §8

[29] = test system: Wheat; assay: Post-emergence test/greenhouse; format: in vivo; conditions: greenhouse, 15 g of ai/ha, rated after three weeks
Experimental: as §1, §6, §7, §4, §8

[30] = test system: Echinochloa; assay: Post-emergence test/greenhouse; format: in vivo; conditions: greenhouse, 15 g of ai/ha, rated after three weeks
Experimental: as §1, §6, §7, §4, §8

[31] = test system: Galium; assay: Pre-emergence test/greenhouse; format: in vivo; conditions: greenhouse, 250 g of ai/ha, rated after three weeks
Experimental: as §1, §2, §3, §4, §5

CCOc1nn(C(=O)NS(=O)(=O)c2c(C(=O)OC)csc2C)c(=O)n1C [Example 1, methyl 4-[[[(3-ethoxy-4,5-dihydro-4-methyl-5-oxo-1H-1,2,4-triazol-1-yl)-carbonyl]-amino]-sulphonyl]-5-methyl-thiophene-3-carboxylate]
very strong activity: activity against weeds [9] | activity against weeds [10]
95%: degree of damage to the plants, Stellaria [5] | degree of damage to the plants, Matricaria [6]
100%: degree of damage to the plants, Veronica [3] | degree of damage to the plants, Chenopodium [4] | degree of damage to the plants, Viola [8] | degree of damage to the plants, Abutilon ([11]; 250 g of ai/ha) | degree of damage to the plants, Setaria ([12]; 250 g of ai/ha) | degree of damage to the plants, Xanthium ([13]; 250 g of ai/ha) | degree of damage to the plants, Sinapis ([14]; 250 g of ai/ha) | degree of damage to the plants, Avenafatua ([15]; 250 g of ai/ha) | degree of damage to the plants, Amaranthus ([16]; 250 g of ai/ha) | degree of damage to the plants, Alopecurus ([17]; 250 g of ai/ha)
163 °C: melting point
90%: degree of damage to the plants, Bromus [1] | degree of damage to the plants, Setaria ([2]; 60 g of ai/ha) | degree of damage to the plants, Alopecurus ([7]; 60 g of ai/ha)

COC(=O)c1csc(C)c1S(=O)(=O)NC(=O)n1nc(OC)n(C)c1=O [Example 2]
80%: degree of damage to the plants, Avenafatua ([15]; 60 g of ai/ha)
very strong activity: activity against weeds [9] | activity against weeds [10]
95%: degree of damage to the plants, Abutilon ([18]; 60 g of ai/ha) | degree of damage to the plants, Setaria ([2]; 60 g of ai/ha) | degree of damage to the plants, Sinapis ([20]; 60 g of ai/ha) | degree of damage to the plants, Alopecurus ([7]; 60 g of ai/ha) | degree of damage to the plants, Alopecurus ([17]; 60 g of ai/ha)
100%: degree of damage to the plants, Xanthium ([19]; 60 g of ai/ha) | degree of damage to the plants, Amaranthus ([21]; 60 g of ai/ha) | degree of damage to the plants, Cyperus ([22]; 60 g of ai/ha) | degree of damage to the plants, Abutilon ([11]; 60 g of ai/ha) | degree of damage to the plants, Setaria ([12]; 60 g of ai/ha) | degree of damage to the plants, Xanthium ([13]; 60 g of ai/ha) | degree of damage to the plants, Sinapis ([14]; 60 g of ai/ha) | degree of damage to the plants, Amaranthus ([16]; 60 g of ai/ha)

CCCOc1nn(C(=O)NS(=O)(=O)c2c(C(=O)OC)csc2C)c(=O)n1C [Example 3]
80%: degree of damage to the plants, Alopecurus ([7]; 60 g of ai/ha)
95%: degree of damage to the plants, Amaranthus ([21]; 60 g of ai/ha) | degree of damage to the plants, Stellaria [5] | degree of damage to the plants, Abutilon ([11]; 15 g of ai/ha) | degree of damage to the plants, Solanum [26] | degree of damage to the plants, Amaranthus ([16]; 15 g of ai/ha)
70%: degree of damage to the plants, Alopecurus ([17]; 15 g of ai/ha)
very strong activity: activity against weeds [9] | activity against weeds [10]
0%: degree of damage to the plants, Barley [24] | degree of damage to the plants, Wheat [25] | degree of damage to the plants, Wheat [29]
100%: degree of damage to the plants, Stellaria [27]
90%: degree of damage to the plants, Solanum [23] | degree of damage to the plants, Matricaria [28]
60%: degree of damage to the plants, Echinochloa [30]

CCOc1nn(C(=O)NS(=O)(=O)c2c(C(=O)OC)csc2C)c(=O)n1C1CC1 [Example 6]
95%: degree of damage to the plants, Xanthium ([19]; 250 g of ai/ha) | degree of damage to the plants, Sinapis ([20]; 250 g of ai/ha) | degree of damage to the plants, Amaranthus ([21]; 250 g of ai/ha) | degree of damage to the plants, Alopecurus ([7]; 250 g of ai/ha)
very strong activity: activity against weeds [9] | activity against weeds [10]
100%: degree of damage to the plants, Abutilon ([18]; 250 g of ai/ha) | degree of damage to the plants, Setaria ([2]; 250 g of ai/ha) | degree of damage to the plants, Cyperus ([22]; 250 g of ai/ha) | degree of damage to the plants, Abutilon ([11]; 250 g of ai/ha) | degree of damage to the plants, Setaria ([12]; 250 g of ai/ha) | degree of damage to the plants, Xanthium ([13]; 250 g of ai/ha) | degree of damage to the plants, Sinapis ([14]; 250 g of ai/ha) | degree of damage to the plants, Avenafatua ([15]; 250 g of ai/ha) | degree of damage to the plants, Amaranthus ([16]; 250 g of ai/ha) | degree of damage to the plants, Alopecurus ([17]; 250 g of ai/ha)
90%: degree of damage to the plants, Galium [31]
